US8858968B2, “Use of tyrosine-arginine dipeptide and niacinamide as substance P antagonist” (L'Oreal, priority 2005, dated 2014)
Ends that are not written are not given here.

Key:
[1] = system: human skin kept under survival conditions; assay: Histological evaluation of the average surface area of the capillaries in human skin kept under survival conditions, stimulated with substance P; format: cell-based; settings: for effect on surface area / dilatation of the dermal capillaries (in words): compared with substance P-treated skin and control skin; for Percentage of dilated dermal capillaries: substance P 10 μM in culture medium, niacinamide 0.5%, dipeptide 0.1% (b140 prints the reverse), mean +/− spread
Protocol: The activity of each of the active agents and of the combination thereof is evaluated in a model of human skin kept under survival conditions. After several hours of re-equilibration of the skin with culture medium (antibiotic+SVF), the culture medium is renewed and substance P at 10 (M, with or without each of the active agents or the combination thereof, is (are) added to the culture medium. […] Morphometric analysis of the surface area (μm^2) occupied by the lumen of the vessels is carried out by microscopic observation from sections: the skin fragments are fixed in Bouin's solution and embedded in paraffin and then stained with haemalun-eosine. The vascular dilatation is evaluated by counting the number of dilated vessels over the entire histological section (16 fields at 40×magnification). This analysis makes it possible to determine the average surface area (μm^2) occupied by the vessels in the dermis.

[2] = system: human skin kept under survival conditions; assay: Histological evaluation of dermal oedema (semi-quantitative score) on the skin sections of Example 1; format: cell-based; settings: for effect on dermal oedema (in words): compared with substance P-stimulated skin and control skin; for Dermal oedema score (0-3): human skin explant, substance P 10 μM, niacinamide 0.5%, dipeptide 0.1% (b140 prints the reverse), mean +/− spread
Protocol: The activity of each of the active agents and of the combination thereof is evaluated in a model of human skin kept under survival conditions. […] Using the sections prepared in Example 1, the oedema is evaluated by means of semi-quantitative scores: • score 0: no oedema • score 1: very slight oedema • score 2: moderate oedema • score 3: considerable oedema

NC(=O)c1cccnc1 [niacinamide, pyridine-3-carboxamide]
effect on surface area / dilatation of the dermal capillaries (in words) [1]: back to a state corresponding to the control | Percentage of dilated dermal capillaries ([1]; human skin explant): 108 +/− 27.6 | effect on dermal oedema (in words) [2]: back to a state corresponding to the control | Dermal oedema score (0-3) [2]: 1.03 +/− 0.64

N-acetyl-tyrosine-arginine-decahexyl ester [dipeptide]
effect on surface area / dilatation of the dermal capillaries (in words) [1]: back to a state corresponding to the control | Percentage of dilated dermal capillaries ([1]; human skin explant): 103.16 +/− 34 | effect on dermal oedema (in words) [2]: back to a state corresponding to the control | Dermal oedema score (0-3) [2]: 1 +/− 0.6

substance P: polypeptide (undecapeptide) produced and released by a nerve ending; used at 10 μM as stimulus (RPKPQQFFGLM; ends and bridges not checked; UniProt P20366 58-68, looked up)
Percentage of dilated dermal capillaries ([1]; human skin explant): 161.6 +/− 56.6 | increase in the surface area compared with the normal skin ([1]; substance P at 10 μM): 63% | average surface area occupied by the vessels in the dermis ([1]; substance P at 10 μM, human skin explant): 161.6+/−56.6 μm^2 | Dermal oedema score (0-3) [2]: 1.9 +/− 0.7 | increase in the oedema score ([2]; treatment with substance P versus control skin): 121% | oedema score ([2]; treatment with substance P, score 0-3): 1.9+/−0.64
